In patent US20260174910A1, “POROUS EXPANDING BIOCOMPATIBLE SCAFFOLDS” (DANMARKS TEKNISKE UNIVERSITET, priority 2022, published 2026):

Legend:
[1] = Lipids/surfactants in ECell: solubility and expansion in PBS (images); assay type: physicochemical; details: for appearance of ECell compositions containing the lipid/surfactant: 1% w/w (RGD lipids 0.1%), with and without 2.5% CAB polymer; for ECell expansion compared to the reference: LOIB:CAB:DMSO:Surfactant 66.5:2.5:30:1, PBS, reference LOIB:CAB:DMSO 67.5:2.5:30; for ECell expansion compared to the reference / shape of the depot compared to reference: 37° C.; for shape of the depot compared to reference: ECells without CAB, LOIB:GTH:DMSO:Surfactant 69:10:20:1, PBS
Procedure: Different surfactants were formulated in expandable (w CAB, Mn 12000) vs non-expandable (w GTH) ECell formulations in a concentration of 1% w/w. […] Gel formulations containing each surfactant were prepared in 600 mg aliquots.
Duplicates consisting of 100 μL gel depots of each ECell formulation were injected into 2 mL PBS buffer. Samples were incubated at 37° C., and images of a non-expandable vs an expandable ECell containing the same surfactant side-by-side were taken at 1.5 h and 2 days and 7 days post injection to investigate and document surfactant effects on ECell expansion.

[2] = cited from earlier work
[3] = Solvent type and ECell expansion in PBS (visual inspection of images); assay type: physicochemical; details: LOIB:CAB (Mn 12000):Solvent 67.5:2.5:30, 100 μL in 2 mL PBS, 37° C., 1.5 h, 2 days, 7 days pi
Procedure: These ECells were prepared to study eventual surface and expansion effects of the specific solvent type on LOIB:CAB compositions. ECell formulations were prepared in 900 mg aliquots. 12 h stability at room temperature (RT) was investigated and documented in images. Only soluble formulations of appropriate viscosity were injected as gel depots into PBS (100 μL, for visual inspection). Duplicates consisting of 100 μL ECell depots of each clear formulation were injected into 2 mL PBS buffer for inspection. Samples were kept at 37° C., and images of each injected gel depot composition were recorded at 1.5 h and 2 days and 7 days post injection (pi) to investigate and document effects of solvent type on the depots.

[4] = In vitro release of MMP / gp-130 inhibitors from expanding ECells (RHPLC); assay type: physicochemical; details: 5 mg/g in LOIB:CAB(12 kDa):DMSO (65:5:30), dPBS, 37° C.
Procedure: The in vitro release profile of three inhibitor compounds were elucidated from a LOIB:CAB(12 kDa):DMSO (65:5:30) formulation. […] Loading of inhibitors were done by adding the desired concentration in mg per g of expanding ECells and stirring on a magnetic stirrer at room temperature until the solution became clear.
Each compound was loaded as 5 mg/g in the expanding ECell formulation and injected in 4 ml Dulbecco's Phosphate-buffered Saline (dPBS) as ≈100 μl, in triplicates, and incubated at 37° C. At chosen time points (see FIG. 19a), all dPBS was removed by pipetting, the expanding ECells+potentially absorbed water was weighed, and its weight noted down, 1 ml dPBS was collected for release quantification, and the remaining dPBS+fresh dPBS to a total of 4 ml (4 g) was added.
Weight data was used to generate a graph of the relative expanding ratio as a function of time (FIG. 19b), and from the 1 ml collected, RHPLC analysis was carried out. […] Solution A was an aqueous mixture of 5% v/v MeCN and 0.01% TFA.

[5] = In vitro release of antimicrobials from expanding ECells (RHPLC); assay type: physicochemical; details: dPBS, 37° C., FIG. 18
Procedure: Each formulation was loaded with antimicrobial in varying concentrations (see Table 1) and was injected as ≈100 μl into 4 ml Dulbecco's Phosphate-buffered Saline (dPBS), in a glass vial, and incubated at 37° C. in atmospheric air, only taken out when samples were collected and new dPBS was added. Sample collection proceeded by removing all dPBS possible with a pipette, weighing the expanding ECells, then saving 1 ml for analysis, returning the rest, and adding new dPBS until 4,000 mg of water was present.
At each chosen time point, 1 ml of the release medium was collected and RHPLC analysis was carried out. […] Solution A was an aqueous mixture of 5% v/v MeCN and 0.01% TFA. […] Rifamycin splits into several peaks over time, and the total AUC of all peaks were used for quantification and standard curve generation.

[6] = Procedure: After addition of LOIB and DMSO, each ECell formulation was sonicated at 75° C. for 2 hrs and vortexed every 30th minute.

| Compound | appearance of ECell compositions containing the lipid/surfactant [1] | ECell expansion compared to the reference [1] | expansion of the ECell by solvent, as judged by the eye [3] | further results |
| --- | --- | --- | --- | --- |
| PEG(20)-monooleyl ether | Homogeneous |  |  |  |
| CNC(=O)[C@H](Cc1ccccc1)NC(=O)[C@H](CC(C)C)[C@H](CSc1cccs1)C(=O)NO [Batimastat] |  |  |  | log P [2]: 3.27 |
| CCCCCCCCCCCC(=O)OCC(O)CO (stereo not shown) [Monolaurin] | Homogeneous | relatively similar to the reference |  |  |
| CN(C)C=O [DMF, Dimethyl formamide] |  |  | cause expansion of the ECell |  |
| Tween 80 | Homogeneous | slightly reduced |  | shape of the depot compared to reference [1]: slight flattening of the depot compared to reference |
| CCCCCCCC/C=C\CCCCCCCC(=O)O [Oleic acid] |  | slightly reduced |  |  |
| CC1COC(=O)O1 (stereo not shown) [PC, Propylene carbonate] |  |  | did not expand |  |
| CCCCCCCCCCCC(=O)O [Lauric acid] | Homogeneous | relatively similar to the reference |  |  |
| 1,2-Dimyristoyl-rac-glycero-3-methoxypolyethylene glycol-2000 [DMG-PEG2K] | Homogeneous | slightly reduced |  |  |
| CCO [EtOH, Ethanol] |  |  | did not expand |  |
| LMT-28 |  |  |  | log P [2]: 3.71; cargo released in vitro after 42 days [4]: 10% |
| C[S+](C)[O-] [DMSO, Dimethyl sulphoxide] |  |  | cause expansion of the ECell |  |
| CO[C@H]1/C=C/O[C@@]2(C)Oc3c(C)c(O)c4c(O)c(cc(O)c4c3C2=O)NC(=O)/C(C)=C\C=C\[C@H](C)[C@H](O)[C@@H](C)[C@@H](O)[C@@H](C)[C@H](OC(C)=O)[C@@H]1C [Rifamycin SV] |  |  |  | log P [2]: 4.17; in vitro release rate (comparison in words) [5]: relatively slower release rate |
| PEG(10)-monolaurate | Homogeneous | slightly reduced |  |  |
| CN1CCCC1=O [NMP, N-methyl pyrrolidone] |  |  | cause expansion of the ECell |  |
| Cellulose Acetate [Cellulose Acetate (Mn=30,000)] |  |  |  | solubility in LOIB:DMSO ECell [6]: insoluble |
| CC(C)CCC[C@@H](C)[C@H]1CC[C@H]2[C@@H]3CC=C4C[C@@H](OC(=O)CCC(=O)O)CC[C@]4(C)[C@H]3CC[C@]12C [CHEMS, cholesteryl hemisuccinate] | Homogeneous | relatively similar to the reference |  | shape of the depot compared to reference [1]: slight flattening of the depot compared to reference |
| CCCCOC(C)=O [BuAc, Butyl acetate] |  |  | did not expand |  |
| O=S(=O)(CC1CS1)c1ccc(Oc2ccccc2)cc1 (stereo not shown) [SB-3CT] |  |  |  | log P [2]: 2.75; cargo released in vitro after 42 days [4]: about 5% |
| OCc1ccccc1 [BnOH, Benzyl alcohol] |  |  | did not expand |  |
